This is an account of results in PMC6222819, “Assessment of Binding Interaction between Bovine Lactoferrin and Tetracycline Hydrochloride: Multi-Spectroscopic Analyses and Molecular Modeling” (Molecules : A Journal of Synthetic Chemistry and Natural …, 2018).

Counter-ions that a name gives are not always drawn.

For this assay, the target named is T1, bovine lactoferrin (bLf) (Bos taurus, UniProt P24627).
T1 construct: gene LTF; 80 kDa; single polypeptide chain
In words: microscale thermophoresis. Type of assay: binding. (In general: MST reads how a fluorescent partner responds to local heating, with and without ligand.)

T1 sequence (P24627 20-708): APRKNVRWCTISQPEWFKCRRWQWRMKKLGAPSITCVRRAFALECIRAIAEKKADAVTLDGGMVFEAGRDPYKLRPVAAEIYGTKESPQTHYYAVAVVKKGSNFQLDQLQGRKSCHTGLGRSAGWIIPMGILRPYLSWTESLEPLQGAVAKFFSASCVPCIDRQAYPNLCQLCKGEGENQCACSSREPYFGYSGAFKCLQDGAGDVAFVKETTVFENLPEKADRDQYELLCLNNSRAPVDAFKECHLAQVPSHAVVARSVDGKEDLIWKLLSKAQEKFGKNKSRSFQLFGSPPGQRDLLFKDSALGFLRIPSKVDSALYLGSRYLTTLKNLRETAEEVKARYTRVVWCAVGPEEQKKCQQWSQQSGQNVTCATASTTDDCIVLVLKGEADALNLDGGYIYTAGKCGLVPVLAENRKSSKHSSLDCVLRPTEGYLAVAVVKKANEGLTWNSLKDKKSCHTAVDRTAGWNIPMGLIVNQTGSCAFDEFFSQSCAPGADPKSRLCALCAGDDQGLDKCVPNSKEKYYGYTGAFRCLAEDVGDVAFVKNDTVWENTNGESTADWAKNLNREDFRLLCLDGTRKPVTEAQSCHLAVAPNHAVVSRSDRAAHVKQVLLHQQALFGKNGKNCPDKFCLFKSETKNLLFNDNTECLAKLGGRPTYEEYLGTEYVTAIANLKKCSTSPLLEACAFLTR

By Kd is commonly meant the equilibrium constant for the complex coming apart. A low value points to higher affinity. The compound `CN(C)[C@@H]1C(O)=C(C(N)=O)C(=O)[C@@]2(O)C(O)=C3C(=O)c4c(O)cccc4[C@@](C)(O)[C@H]3C[C@@H]12` [Tetracycline hydrochloride] registered a Kd of 35.2 µM. This lies in the double-digit micromolar range.
